# Read-outs that look alike come from different tables or passages of the source.
# Columns and labels:
# Caenorhabditis elegans = type: in vivo
# Experimental: In the second type of experiment, an animal model system was used to study changes in the gut microbiome behavior. Caenorhabditis elegans (C. elegans), a nematode commonly used as an organism model, was used in the present study. Reduction of oxidative stress was determined in the C. elegans model. Butyrate has previously been shown in rodent and porcine studies to ameliorate oxidative stress in the intestine generated via hydrogen peroxide or Diquat dibromide exposure. Thus, an oxidative stress assay is a rapid indirect method of determining whether the tributyrin doses proposed in this study can produce beneficial butyrate in vivo.
# Previous studies have shown that this concentration of Paraquat will kill adult C. elegans in liquid culture within 24 hours of exposure via the generation of superoxide anions that lead to oxidative damage of vital cellular components. The standard methods of growing the animals, treating with Paraquat, washing out the Paraquat, and observing survival at 12 hours post Paraquat treatment have been previously described. One group received only Paraquat as a positive control, while a second group received nothing as a negative control, and all others received the therapeutic treatments. […]
# In the C. elegans series of studies, the human equivalent dose (HED) of tributyrin was determined in the following manner. A typical human stomach size of 250 ml was used as a baseline. […] Tributyrin is soluble in DMSO up to a maximum concentration of 100 mg/ml, which is equivalent to 330.73 mM. C. elegans can be exposed to a 1% solution of DMSO in aqueous standard nematode growth media without compromising its viability. […]
# [1] = solubility of tributyrin in DMSO; type: physicochemical; conditions: organic solvent or mixture, equivalent of 100 mg/ml, read-out: maximum concentration soluble in DMSO
# Experimental: In the C. elegans series of studies, the human equivalent dose (HED) of tributyrin was determined in the following manner. A typical human stomach size of 250 ml was used as a baseline. 100 mg per serving per day of tributyrin for a 60 Kg adult is equivalent to 400 μg/ml (˜1.32 mM). Tributyrin is soluble in DMSO up to a maximum concentration of 100 mg/ml, which is equivalent to 330.73 mM. C. elegans can be exposed to a 1% solution of DMSO in aqueous standard nematode growth media without compromising its viability. Doses between 10 mg HED [40 μg/ml (˜0.13 mM)], and 100 mg HED [400 μg/ml (˜1.32 mM)] were used.
# [2] = tested on: mucosal damage in experimental colitis; conditions: DSS colitis, 5 g/kg diet, cited from earlier work
# [3] = cited from earlier work
# [4] = after ingestion, cited from earlier work
# [5] = tested on: intestinal barrier and liver; conditions: ethanol-exposed mice, diet supplemented 5 mM, 10 days; cited from earlier work
# [6] = tested on: gut microbiota starter cultures (human feces from 6 volunteers); assay: ex vivo simulation of colon fermentation with human fecal starter cultures; butyrate generation by chromatography; type: cell-based; conditions: for Butyrate Generation: after 48 hours of fermentation
# Experimental: In the first type of experiment, an ex-vivo model system is used. In this model system, an ex vivo simulation of the fermentation that occurs in the colon was used. Human feces from 6 volunteers were used as a gut microbiota starter cultures. The test materials were added to this system and butyrate generation was determined after 48 hours of fermentation, compared to controls for each set. Butyrate generation was measured using chromatography.
# In this series of experiments the human equivalent dose (HED) was determined to be 1 gram/day of ingested prebiotic in-vivo corresponds to approximately 1 g/L in-vitro dose. Therefore a 10 mg/ml in-vitro dose is equivalent to 10 mg/day HED.
# [7] = Example 4, probiotic alone, test dose 5*10^7 CFU/mL, blank 2.78
compound,measurement,setting,value
"C[n+]1ccc(-c2cc[n+](C)cc2)cc1 [Paraquat, reference compound]",% Survival of Worms at 12 hours,"Caenorhabditis elegans; Paraquat 250 nM alone (positive control), negative control 98.69",67.63%
"CCCC(=O)OCC(COC(=O)CCC)OC(=O)CCC [Tributyrin, propane-1,2,3-triyl tributyrate]",solubility,[1],331 mM
same,oxidative stress,"Caenorhabditis elegans; Example 3, tributyrin HED 10 and 100 mg/day, in words",significant reduction in oxidative stress
same,% Survival of Worms at 12 hours,"Caenorhabditis elegans; test dose 40 ug/mL (HED 10 mg per day), no Paraquat",97.24%
same,% Survival of Worms at 12 hours,"Caenorhabditis elegans; test dose 40 ug/mL + Paraquat 250 nM (HED 10 mg per day), Paraquat alone 67.63",68.86%
same,% Survival of Worms at 12 hours,"Caenorhabditis elegans; test dose 400 ug/mL (HED 100 mg per day), no Paraquat",99.23%
same,% Survival of Worms at 12 hours,"Caenorhabditis elegans; test dose 400 ug/mL + Paraquat 250 nM (HED 100 mg per day), Paraquat alone 67.63",73.63%
same,mucosal architecture,[2]; versus non-supplemented mice,improved mucosal architecture
same,intestinal permeability,[2],reduced intestinal permeability
same,oxidative stress (hydroperoxide),[2],lower level of hydroperoxide
same,maximum concentration soluble in DMSO,[3],≤ 100 mg/mL
same,peak time of butyrate in plasma,[4]; in words,on the order of hours
same,liver injury,[5],mitigated liver injury
same,tight-junction (TJ) protein staining in proximal colon and ileum,[5],maintained immunoreactive staining intensity of TJ proteins
same,Butyrate Generation,"[6]; Example 1, test dose 50 mg/L (HED 50 mg per day), blank 2.86",3.22 mM
same,Butyrate Generation,"[6]; Example 1, test dose 100 mg/L (HED 100 mg per day), blank 2.86",3.73 mM
same,butyrate generation compared with inulin at HED 4 g/day,"[6]; Example 1, tributyrin HED 50 to 100 mg/day, in words",about the same amount of butyrate
same,butyrate generation compared with XOS at HED 1 g/day,"[6]; Example 2, tributyrin 100 mg/day HED, in words",equivalent butyrate generation
same,Butyrate Generation,"[6]; Examples 2 and 4, test dose 100 mg/L (HED 100 mg per day), blank 2.78",3.51 mM
"CCCC(=O)[O-].[Na+] [sodium butyrate, Sodium butyrate, reference compound]",peak time of butyrate in plasma,[4],15 to 45 min
Inulin [reference compound],Butyrate Generation,"[6]; Example 1, test dose 4 g/L (HED 4 g per day), blank 2.86",3.62 mM
Lacticaseibacillus rhamnosus GG [LGG],Butyrate Generation,[6]; [7],3.15 mM
Limosilactobacillus reuteri,Butyrate Generation,[6]; [7],2.72 mM
"partially hydrolyzed guar gum [PHGG, reference compound]",% Survival of Worms at 12 hours,"Caenorhabditis elegans; test dose 20 mg/mL (HED 5 g per day), no Paraquat",96.24%
same,% Survival of Worms at 12 hours,"Caenorhabditis elegans; test dose 20 mg/mL + Paraquat 250 nM (HED 5 g per day), Paraquat alone 67.63",49.39%
same,% Survival of Worms at 12 hours,"Caenorhabditis elegans; test dose 40 mg/mL (HED 10 g per day), no Paraquat",96.27%
same,% Survival of Worms at 12 hours,"Caenorhabditis elegans; test dose 40 mg/mL + Paraquat 250 nM (HED 10 g per day), Paraquat alone 67.63",62.99%
"xylooligosaccharide [XOS, reference compound]",Butyrate Generation,"[6]; Examples 2 and 4, test dose 1 g/L (HED 1 g per day), blank 2.78",3.30 mM
